Each structure is given as a SMILES string. Activity calls are given as the source filed them. The rule behind the calls is not given here. Numbered stars: 1 amine (or outer) side, 2 acyl side, 3 side chain; on linkers, the order of the positions; unused ones are H or OH. Bridge positions count the residues as written; N and C are the ends. Square brackets hold non-standard residues; d marks the D form. Peptide text beside a SMILES is read from it. NMehTyr = CN[C@@H](CCc1ccc(O)cc1)C(=O)O; hTyr = N[C@@H](CCc1ccc(O)cc1)C(=O)O; CO = O=C([*:1])[*:2]

One assay deals with T1, Carboxypeptidase A1 (Homo sapiens, UniProt P15085).
T1 sequence (P15085 whole entry): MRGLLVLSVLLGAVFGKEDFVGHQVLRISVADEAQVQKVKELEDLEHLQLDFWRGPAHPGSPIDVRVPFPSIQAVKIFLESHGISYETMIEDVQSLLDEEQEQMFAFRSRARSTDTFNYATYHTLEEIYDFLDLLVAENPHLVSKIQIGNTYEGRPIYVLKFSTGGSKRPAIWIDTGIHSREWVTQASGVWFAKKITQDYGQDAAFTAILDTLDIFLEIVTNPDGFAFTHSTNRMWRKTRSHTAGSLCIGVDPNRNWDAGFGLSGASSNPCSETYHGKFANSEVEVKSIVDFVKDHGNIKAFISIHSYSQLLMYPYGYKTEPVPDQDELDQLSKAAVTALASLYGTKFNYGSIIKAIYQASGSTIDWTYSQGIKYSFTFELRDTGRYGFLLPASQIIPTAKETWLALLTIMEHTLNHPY
Kind of assay: Inhibition of carboxypeptidase A.

The nature of assay [1]: Inhibition of trypsin up to 100 ug/ml.
The nature of assay [2]: Inhibition of chymotrypsin up to 100 ug/ml.
The target in assay [3] is T2, Carboxypeptidase A1 (Homo sapiens) (UniProt P15085).
T2 sequence (whole entry): T1 sequence (P15085 whole entry)
The assay is described as follows: Inhibition of carboxypeptidase A up to 20 ug/ml.

On to `CC[C@H](C)[C@@H]1NC(=O)[C@H](CCc2ccc(O)cc2)N(C)C(=O)[C@H](CCc2ccc(O)cc2)NC(=O)[C@H](C(C)C)NC(=O)[C@H](NC(=O)N[C@@H](Cc2ccc(O)cc2)C(=O)O)CCCCNC1=O` [ANABAENOPEPTIN 915] ({Tyr-CO}-[dK]V[hTyr][NMehTyr]I; lactam 1-C), for which, at Carboxypeptidase A1, the IC50 was 131 nM. In addition, the outcome in assay [1] and in assay [2] was inactive.

Turning to `CC[C@H](C)[C@@H]1NC(=O)[C@H](CCc2ccc(O)cc2)N(C)C(=O)[C@H](CCc2ccc(O)cc2)NC(=O)[C@H](C(C)C)NC(=O)[C@H](NC(=O)N[C@@H](CCCNC(=N)N)C(=O)O)CCCCNC1=O` ({Arg-CO}-[dK]V[hTyr][NMehTyr]I; lactam 1-C), the outcome in assay [1], in assay [2] and in assay [3] was inactive.

Broadly, the IC50 is the concentration at which inhibition is half-maximal. A higher IC50 goes with weaker potency in that assay.

Values taken from ChEMBL document CHEMBL1151812, “Homotyrosine-containing cyanopeptolins 880 and 960 and anabaenopeptins 908 and 915 from Planktothrix agardhii CYA 126/8” (J Nat Prod, 2009).
